In PubChem BioAssay AID1919010 (Molecular Pharmacology Branch, DTP, NCI, 2023) one finds viability, T/C and IC50 data, which are given here for five compounds.

Where “and” joins values, the source holds several entries; their conditions need not be identical. Identical values can stand only once.

For the test, the system named is Hs578T complex spheroid growth, percent test/control. In words: Anticancer human tumor Hs578T cell line growth inhibition [AhR].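 For all read-outs here: luminescent viability signal as a proxy for spheroid growth; spheroids exposed to agents for one week after three days of growth.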 The following applies: for viability, T/C: stronger effect = lower value. An outline of the steps: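 Complex tumor spheroids co-cultured with HUVEC and human MSC stroma; AhR antagonists tested in combination with standard-of-care and investigational agents. Top concentration at or near clinical Cmax (else 10 microM), half-log dilutions; growth expressed as percent test/control.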

Where [1] appears, read: curve of first compound, second compound 0.1 µM.
The mark [2] stands for this setting: curve of first compound, second compound 0.316 µM.
Where [3] appears, read: curve of first compound, second compound 1 µM.
[4] abbreviates: curve of first compound, second compound 3.16 µM.
The mark [5] stands for this setting: curve of first compound, second compound 10 µM.
[6] abbreviates: second compound 0.1 µM, first compound 0.0316 µM.
[7] abbreviates: second compound 0.1 µM, first compound 0.1 µM.
The mark [8] stands for this setting: second compound 0.316 µM, first compound 0.0316 µM.
Setting [9] is: second compound 0.316 µM, first compound 0.1 µM.
[10] abbreviates: second compound 1 µM, first compound 0.0316 µM.
The mark [11] stands for this setting: second compound 1 µM, first compound 0.1 µM.
Where [12] appears, read: second compound 3.16 µM, first compound 0.0316 µM.
Where [13] appears, read: second compound 3.16 µM, first compound 0.1 µM.
[14] abbreviates: second compound 10 µM, first compound 0.0316 µM.
The mark [15] stands for this setting: second compound 10 µM, first compound 0.1 µM.
The mark [16] stands for this setting: second compound 0.1 µM, first compound 0.316 µM.
Where [17] appears, read: second compound 0.1 µM, first compound 1 µM.
Setting [18] is: second compound 0.1 µM, first compound 3.16 µM.
The mark [19] stands for this setting: second compound 0.1 µM, first compound 10 µM.
Setting [20] is: second compound 0.316 µM, first compound 0.316 µM.
[21] abbreviates: second compound 0.316 µM, first compound 1 µM.
Where [22] appears, read: second compound 0.316 µM, first compound 3.16 µM.
[23] abbreviates: second compound 0.316 µM, first compound 10 µM.
The mark [24] stands for this setting: second compound 1 µM, first compound 0.316 µM.
Where [25] appears, read: second compound 1 µM, first compound 1 µM.
The mark [26] stands for this setting: second compound 1 µM, first compound 3.16 µM.
[27] abbreviates: second compound 1 µM, first compound 10 µM.
[28] abbreviates: second compound 3.16 µM, first compound 0.316 µM.
Where [29] appears, read: second compound 3.16 µM, first compound 1 µM.
[30] abbreviates: second compound 3.16 µM, first compound 3.16 µM.
Where [31] appears, read: second compound 3.16 µM, first compound 10 µM.
Setting [32] is: second compound 10 µM, first compound 0.316 µM.
The mark [33] stands for this setting: second compound 10 µM, first compound 1 µM.
Where [34] appears, read: second compound 10 µM, first compound 3.16 µM.
Where [35] appears, read: second compound 10 µM, first compound 10 µM.

By viability, T/C is commonly meant the ratio of treated to control. As usually defined, the IC50 is the concentration that gives 50% inhibition. On to `Nc1ncn(C2CC(O)C(CO)S2)c(=O)n1` (centres undefined), for which the viability, T/C was 112% and 105% and 101% (compound 0.000949 µM); 100% and 106% and 101% (compound 0.003 µM); 116% and 96% and 105% (compound 0.00949 µM); 102% and 97.7% and 101% (compound 0.03 µM); 102% and 97.4% and 104% (compound 0.0949 µM); 98.1% and 90.8% and 94.5% (compound 0.3 µM). Further, for the setting “curve of compound”, the half-inhibitory concentration (IC50) was above 0.3 µM.

For the compound `Cn1ncnc1C1c2n[nH]c(=O)c3cc(F)cc(c23)NC1c1ccc(F)cc1` (centres undefined) + Cc1ccccc1N=Nc1ccc(NC(=O)c2ccnn2C)c(C)c1, the IC50 reads like this: under setting [1], above 0.1 µM; under setting [2], above 0.1 µM; under setting [3], above 0.1 µM; under setting [4], above 0.1 µM; under setting [5], above 0.1 µM. Also, the viability, T/C (second compound 0.1 µM, first compound 0.000316 µM) is 109%; the viability, T/C (second compound 0.1 µM, first compound 0.001 µM) was 104%; the viability, T/C (second compound 0.1 µM, first compound 0.00316 µM) was 105%; the viability, T/C (second compound 0.1 µM, first compound 0.01 µM) was 105%; the viability, T/C under setting [6] was 100%; the viability, T/C under setting [7] is 99.5%. Also, the viability, T/C was 121% (second compound 0.316 µM, first compound 0.000316 µM); 117% (second compound 0.316 µM, first compound 0.001 µM); 109% (second compound 0.316 µM, first compound 0.00316 µM); 105% (second compound 0.316 µM, first compound 0.01 µM); 106% under setting [8]; 107% under setting [9]. In addition, the viability, T/C was 108% (second compound 1 µM, first compound 0.000316 µM); 105% (second compound 1 µM, first compound 0.001 µM); 107% (second compound 1 µM, first compound 0.00316 µM); 104% (second compound 1 µM, first compound 0.01 µM); 107% under setting [10]; 99.7% under setting [11]. Further, the viability, T/C runs as follows: (second compound 3.16 µM, first compound 0.000316 µM) 94.4%; (second compound 3.16 µM, first compound 0.001 µM) 103%; (second compound 3.16 µM, first compound 0.00316 µM) 101%; (second compound 3.16 µM, first compound 0.01 µM) 93.9%; under setting [12], 99.9%; under setting [13], 99%. Moreover, the viability, T/C (second compound 10 µM, first compound 0.000316 µM) is 73.7%; the viability, T/C (second compound 10 µM, first compound 0.001 µM) was 71.2%; the viability, T/C (second compound 10 µM, first compound 0.00316 µM) is 76.7%; the viability, T/C (second compound 10 µM, first compound 0.01 µM) was 81.7%; the viability, T/C under setting [14] is 69%; the viability, T/C under setting [15] is 72.2%.

Regarding `COc1cc(Nc2ncc3c(n2)-c2ccc(Cl)cc2C(c2c(F)cccc2OC)=NC3)ccc1C(=O)O` + Cc1ccccc1N=Nc1ccc(NC(=O)c2ccnn2C)c(C)c1, the IC50 under setting [1] amounted to 6.12 µM; the IC50 under setting [2] turned out to be 6.76 µM; the IC50 under setting [3] was found to be 7.91 µM; the IC50 under setting [4] was above 10 µM; the IC50 under setting [5] was 5.67 µM. In addition, the viability, T/C under setting [6] was 88.2%; the viability, T/C under setting [7] was 91.4%; the viability, T/C under setting [16] was 78%; the viability, T/C under setting [17] was 77.5%; the viability, T/C under setting [18] was 71.9%; the viability, T/C under setting [19] was 35.4%. The viability, T/C was 85% under setting [8]; 81.7% under setting [9]; 91.8% under setting [20]; 79.4% under setting [21]; 67.9% under setting [22]; 40.9% under setting [23]. Besides, the viability, T/C reads like this: under setting [10], 86%; under setting [11], 75%; under setting [24], 92.9%; under setting [25], 82.3%; under setting [26], 73.2%; under setting [27], 44%. Besides, the viability, T/C runs as follows: under setting [12], 71.5%; under setting [13], 83.1%; under setting [28], 85.1%; under setting [29], 73.8%; under setting [30], 66.7%; under setting [31], 50.1%. The viability, T/C by setting is: under setting [14], 68.4%; under setting [15], 64.2%; under setting [32], 68.3%; under setting [33], 63.9%; under setting [34], 62.5%; under setting [35], 38.2%.

For the compound `COc1cc(Nc2ncc3c(n2)-c2ccc(Cl)cc2C(c2c(F)cccc2OC)=NC3)ccc1C(=O)O`, the viability, T/C (compound 0.0316 µM) was 78.2% and 84.4% and 89.2%; the viability, T/C (compound 0.1 µM) is 92.6% and 82.2% and 94%; the viability, T/C (compound 0.316 µM) is 97% and 80.2% and 85.2%; the viability, T/C (compound 1 µM) was 96.8% and 87% and 87.8%; the viability, T/C (compound 3.16 µM) was 89.2% and 70.9% and 81%; the viability, T/C (compound 10 µM) is 47.3% and 34.7% and 44.9%. Besides, where the note is “curve of compound”, the half-maximal inhibitory concentration (IC50) was 9.28 µM and 6.15 µM and 8.47 µM.

Consider `CC1(C)CCC(CN2CCN(c3ccc(C(=O)NS(=O)(=O)c4ccc(NCC5CCOCC5)c([N+](=O)[O-])c4)c(Oc4cnc5[nH]ccc5c4)c3)CC2)=C(c2ccc(Cl)cc2)C1` + Cc1ccccc1N=Nc1ccc(NC(=O)c2ccnn2C)c(C)c1, for which the IC50 runs as follows: under setting [1], above 10 µM; under setting [2], above 10 µM; under setting [3], above 10 µM; under setting [4], above 10 µM; under setting [5], above 10 µM. In addition, the viability, T/C runs as follows: under setting [6], 117%; under setting [7], 106%; under setting [16], 100%; under setting [17], 101%; under setting [18], 97.3%; under setting [19], 65.1%. Besides, the viability, T/C reads like this: under setting [8], 106%; under setting [9], 106%; under setting [20], 113%; under setting [21], 109%; under setting [22], 95.9%; under setting [23], 65.8%. For the same compound, the viability, T/C was 103% under setting [10]; 105% under setting [11]; 108% under setting [24]; 94.8% under setting [25]; 97.2% under setting [26]; 75.4% under setting [27]. For the same compound, the viability, T/C was 94.7% under setting [12]; 95.9% under setting [13]; 102% under setting [28]; 90.3% under setting [29]; 89.5% under setting [30]; 69.3% under setting [31]. Besides, the viability, T/C by setting is: under setting [14], 66.1%; under setting [15], 65.3%; under setting [32], 65.9%; under setting [33], 68.9%; under setting [34], 67.2%; under setting [35], 64.3%.
